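These data come from cells grown in 96-well plates and exposed to compound for 48 hours at five concentrations. At the TGI there is no net growth.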
What was measured:
Experiment in all cases: growth of human tumour cells (NCI), 48 h
COLO 205 colon = tested on: COLO 205 colon
HCC-2998 colon = tested on: HCC-2998 colon
HOP-62 NSCLC = tested on: HOP-62 NSCLC
HOP-92 NSCLC = tested on: HOP-92 NSCLC
KM12 colon = tested on: KM12 colon
NCI-H226 lung = tested on: NCI-H226 lung
OVCAR-8 ovarian = tested on: OVCAR-8 ovarian
RXF 393 renal = tested on: RXF 393 renal
SK-MEL-2 melanoma = tested on: SK-MEL-2 melanoma
SNB-19 CNS = tested on: SNB-19 CNS
UACC-257 melanoma = tested on: UACC-257 melanoma
UO-31 renal = tested on: UO-31 renal
MDA-MB-231 breast = tested on: MDA-MB-231 breast
MDA-N = tested on: MDA-N
PC-3 prostate = tested on: PC-3 prostate
SR leukemia = tested on: SR leukemia
U251 CNS = tested on: U251 CNS

Compound | TGI (COLO 205 colon) | TGI (HCC-2998 colon) | TGI (HOP-62 NSCLC) | TGI (HOP-92 NSCLC) | TGI (KM12 colon) | TGI (NCI-H226 lung) | TGI (OVCAR-8 ovarian) | TGI (RXF 393 renal) | TGI (SK-MEL-2 melanoma) | TGI (SNB-19 CNS) | TGI (UACC-257 melanoma) | TGI (UO-31 renal) | TGI (MDA-MB-231 breast) | TGI (MDA-N) | TGI (PC-3 prostate) | TGI (SR leukemia) | TGI (U251 CNS)
Cc1nnc(N/N=C(/C(=O)C(C#N)c2ccc(Cl)cc2)C(C#N)c2ccc(Cl)cc2)n1N (stereo not drawn) | 32.5 µM | 34.2 µM | 30.3 µM | > 100 µM | 39.8 µM | 33.5 µM | 41 µM | 31.6 µM | 34.5 µM | 27.9 µM | 33.1 µM | 34.1 µM |  |  |  |  | 
CNC(=O)N1N[C@H](c2ccccc2)[C@@H]1c1ccccc1 | 38.8 µM | 68.8 µM | > 100 µM | 91.2 µM | 45.2 µM | 32.8 µM | 29.9 µM | 36.6 µM | 32 µM | > 100 µM | > 100 µM | 74.4 µM | > 100 µM | > 100 µM | 99.1 µM | 58.4 µM | 43 µM
CN(C)C(F)=PC(F)(F)F (stereo not drawn) | > 100 µM | > 100 µM | > 100 µM | > 100 µM | > 100 µM | > 100 µM | > 100 µM | > 100 µM | > 100 µM | > 100 µM | > 100 µM | > 100 µM |  |  |  |  | > 100 µM
CSc1ccc2c(cc1=O)C(NC(=O)c1ccc(C#N)cc1)CCc1cc(O)c(O)c(O)c1-2 (stereo not drawn) | 38.6 µM | 81.6 µM | > 100 µM |  | > 100 µM | 59.1 µM | 99.7 µM |  |  | > 100 µM | 37 µM | > 100 µM |  |  |  | 48.7 µM | 45.3 µM
